Earlier results, collected in patent US20210283075A1, “METHODS OF TREATING ATTENTION DEFICIT HYPERACTIVITY DISORDER” (Ovid Therapeutics, Inc., priority 2018, published 2021).

Assays:
[1] = compared to lorazepam
[2] = compared to placebo
[3] = biological target: sigma-1 receptor (Homo sapiens, UniProt Q99720)
[4] = biological target: T1, 5-HT2C (Homo sapiens, UniProt P28335)
T1 sequence (P28335 33-458): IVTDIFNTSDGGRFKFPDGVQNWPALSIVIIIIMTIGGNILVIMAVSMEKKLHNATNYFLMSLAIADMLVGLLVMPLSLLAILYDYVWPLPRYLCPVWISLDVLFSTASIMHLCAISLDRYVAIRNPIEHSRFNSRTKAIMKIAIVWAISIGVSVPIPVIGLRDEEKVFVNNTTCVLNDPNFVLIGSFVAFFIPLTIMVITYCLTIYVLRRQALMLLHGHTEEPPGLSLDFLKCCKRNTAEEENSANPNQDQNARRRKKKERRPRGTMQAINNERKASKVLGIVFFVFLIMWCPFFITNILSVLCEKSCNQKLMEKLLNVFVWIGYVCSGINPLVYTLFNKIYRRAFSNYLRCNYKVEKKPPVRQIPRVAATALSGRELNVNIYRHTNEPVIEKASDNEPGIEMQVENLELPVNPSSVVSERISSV

[5] = biological target: dopamine D3 (Homo sapiens, UniProt P35462)
[6] = system: brain-derived neurotrophic factor (BDNF); conditions: hypothalamus

Sequence of dopamine D3 (P35462 whole entry): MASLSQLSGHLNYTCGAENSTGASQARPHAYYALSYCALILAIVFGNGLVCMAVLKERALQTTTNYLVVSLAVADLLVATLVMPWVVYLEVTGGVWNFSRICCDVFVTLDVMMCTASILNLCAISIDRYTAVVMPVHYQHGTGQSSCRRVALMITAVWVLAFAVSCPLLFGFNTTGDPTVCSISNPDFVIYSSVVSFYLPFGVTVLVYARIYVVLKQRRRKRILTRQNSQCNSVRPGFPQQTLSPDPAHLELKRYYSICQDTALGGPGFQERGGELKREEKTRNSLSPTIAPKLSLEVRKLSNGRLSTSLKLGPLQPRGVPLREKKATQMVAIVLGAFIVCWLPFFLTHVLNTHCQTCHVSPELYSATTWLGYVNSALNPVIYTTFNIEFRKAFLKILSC
Sequence of sigma-1 receptor (Q99720 whole entry, species assumed): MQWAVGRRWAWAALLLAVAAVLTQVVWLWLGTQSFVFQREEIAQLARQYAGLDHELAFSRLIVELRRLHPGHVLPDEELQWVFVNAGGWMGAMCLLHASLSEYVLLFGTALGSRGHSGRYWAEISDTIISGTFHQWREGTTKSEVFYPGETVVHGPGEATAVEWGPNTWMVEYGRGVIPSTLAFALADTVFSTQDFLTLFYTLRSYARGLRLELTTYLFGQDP

**Q.** For `CCCCSc1ccc(C(SCCN(C)C)c2ccccc2)cc1` (stereo not shown) [Captodiamine, 2-[(4-butylsulfanylphenyl)-phenyl-methyl]sulfanyl-N,N-dimethylethanamine], which “concentration and dexterity when driving” value [1] is on record?
**A.** The value was “improved the concentration and dexterity”.

**Q.** And the tendency to drowsiness ([1]; when driving)?
**A.** Its tendency to drowsiness is “without inducing a tendency to drowsiness”.

**Q.** What about the “severity of benzodiazepine withdrawal symptoms” value [2] of the same compound?
**A.** Its value is “lower severity of benzodiazepine withdrawal symptoms”.

**Q.** And the “activity at sigma-1 receptor” value [3]?
**A.** The value was “sigma-1 receptor agonist”.

**Q.** And the “activity at 5-HT2C” value [4]?
**A.** The value was 5-HT2C antagonist.

**Q.** What about the “activity at dopamine D3” value [5] of the same compound?
**A.** Its value is “dopamine D3 agonist”.

**Q.** What about the BDNF protein levels [6] of the same compound?
**A.** Its BDNF protein levels is “increase”.
